Molecular target: T1, Neuropeptide Y receptor type 5 (Homo sapiens, UniProt Q15761)
T1 sequence (Q15761 whole entry): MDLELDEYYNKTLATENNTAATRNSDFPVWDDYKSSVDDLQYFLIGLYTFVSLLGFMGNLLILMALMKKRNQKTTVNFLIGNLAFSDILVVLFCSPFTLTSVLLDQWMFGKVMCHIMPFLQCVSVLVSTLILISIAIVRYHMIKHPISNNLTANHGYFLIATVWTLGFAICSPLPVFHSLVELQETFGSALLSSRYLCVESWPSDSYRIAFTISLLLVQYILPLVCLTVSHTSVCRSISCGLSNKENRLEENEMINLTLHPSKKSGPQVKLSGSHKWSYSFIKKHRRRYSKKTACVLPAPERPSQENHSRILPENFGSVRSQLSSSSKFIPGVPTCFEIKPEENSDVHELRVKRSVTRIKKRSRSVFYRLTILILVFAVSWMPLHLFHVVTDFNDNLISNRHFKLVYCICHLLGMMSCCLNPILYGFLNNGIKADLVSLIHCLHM
Assay: Inhibition of [125I]-PYY binding to recombinant NPY Y5 receptor on HEK293 cell membranes.
Type: cell-based

SMILES	IC50
N[C@@H](CCCCNS(=O)(=O)c1ccccc1F)C(=O)NC1CCc2cc(F)ccc2C1Cc1cccnc1 (some centres not stated)	22 nM
C=CCC1c2ccc(F)cc2CCC1NC(=O)[C@H]1CC[C@H](CNS(=O)(=O)c2ccccc2)CC1 (some centres not stated)	75 nM
O=C(CN1CCC(NS(=O)(=O)c2ccccc2)CC1)NC1CCc2cc(F)ccc2C1Cc1cccnc1 (configuration not stated)	10 nM
C=CCC1c2ccc(O)cc2CCC1NC[C@H]1CC[C@H](CNS(=O)(=O)c2ccccc2)CC1 (some centres not stated)	5 nM
COc1ccc2c(c1)CCC(NC[C@H]1CC[C@H](CNS(=O)(=O)c3ccc4ccccc4c3)CC1)C2Cc1cccnc1 (some centres not stated)	337 nM
O=C(NC1CCc2cc(F)ccc2C1Cc1cccnc1)[C@H]1CC[C@H](CNS(=O)(=O)c2ccccc2)CC1 (some centres not stated)	40 nM
COc1ccc2c(c1)CCC(NCCCCCCNS(=O)(=O)c1ccccc1)C2Cc1cccnc1 (configuration not stated)	53 nM
O=C(CN1CC[C@@H](NS(=O)(=O)c2ccccc2)C1)NC1CCc2cc(F)ccc2C1Cc1cccnc1 (some centres not stated)	27 nM
COc1ccc2c(c1)CCC(NCCc1ccc(OC)c(OC)c1)C2Cc1ccccc1 (configuration not stated)	900 nM
O=C(NC1CCc2cc(F)ccc2C1Cc1cccnc1)[C@H]1CC[C@H](CNS(=O)(=O)c2ccccc2F)CC1 (some centres not stated)	12 nM
COc1ccc2c(c1)CCC(NC[C@H]1CC[C@H](CNS(=O)(=O)c3ccccc3)CC1)C2Cc1cccnc1 (some centres not stated)	10 nM
COc1ccc2c(c1)CCC(NC(=O)[C@H]1CC[C@H](CNS(=O)(=O)c3ccccc3)CC1)C2Cc1cccnc1 (some centres not stated)	11 nM
COc1ccc2c(c1)CCC(NC(=O)[C@H]1CC[C@H](CNS(=O)(=O)c3ccccc3F)CC1)C2Cc1cccnc1 (some centres not stated)	11 nM
O=S(=O)(NC[C@H]1CC[C@H](CNC2CCc3cc(F)ccc3C2Cc2cccnc2)CC1)c1ccccc1 (some centres not stated)	27 nM
N[C@@H](CCCCNS(=O)(=O)c1ccccc1F)CNC1CCc2cc(O)ccc2C1Cc1cccnc1 (some centres not stated)	1 nM
O=C(CN1CCC(NS(=O)(=O)c2ccccc2)C1)NC1CCc2cc(F)ccc2C1Cc1cccnc1 (configuration not stated)	11 nM
COc1ccc2c(c1)CCC(NC[C@H]1CC[C@H](CNS(=O)(=O)c3ccccc3F)CC1)C2Cc1cccnc1 (some centres not stated)	23 nM
O=S(=O)(NC[C@H]1CC[C@H](CNC2CCc3cc(O)ccc3C2Cc2cccnc2)CC1)c1ccccc1F (some centres not stated)	7 nM
C=CCC1c2ccc(F)cc2CCC1NC[C@H]1CC[C@H](CNS(=O)(=O)c2ccccc2)CC1 (some centres not stated)	21 nM
COc1ccc2c(c1)CCC(NC[C@H]1CC[C@H](CNS(=O)(=O)c3ccc4ccccc4c3)CC1)C2Cc1ccccc1 (some centres not stated)	443 nM
O=C(CN1CC[C@H](NS(=O)(=O)c2ccccc2)C1)NC1CCc2cc(F)ccc2C1Cc1cccnc1 (some centres not stated)	5 nM
O=S(=O)(NC[C@H]1CC[C@H](CNC2CCc3cc(F)ccc3C2Cc2cccnc2)CC1)c1ccccc1F (some centres not stated)	19 nM
